Measurements as given in patent publication US7393857B2, “Use of 5-HT3 receptor antagonists for treating musculoskeletal diseases” (Novasearch AG, priority 1999, dated 2008).

How the values were obtained:
Assay type in all cases: in vivo, human
[1] = test system: patients exhibiting rheumatoid arthritis and severe consequential synovial inflammation; assay: Clinical trial: synovial inflammation/synovitis in rheumatoid arthritis, intraarticular tropisetron (Example 1); settings: 2 mg intraarticularly once
[2] = test system: patient with repeated exudation from the knee joint consequential to damage to the meniscus; assay: Clinical case: repeated knee joint exudation after meniscus damage, intra-articular tropisetron (Example 2, first patient); settings: 2 mg intra-articularly
Procedure: Prior to the trial the patient received injections of glucocorticoid. The patient receives an injection of 2 mg of tropisetron administered intra-articularly.

[3] = test system: patient with damage to the meniscus and arthritic change leading to synovial irritation with knee joint effusion; assay: Clinical case: synovial irritation with knee joint effusion, i.v. tropisetron (Example 2, second patient)
Procedure: […] 2 mg doses of tropisetron are administered i.v. over a period of 17 days with 15 injections, one each day with a 2 days pause in therapy.

[4] = test system: patients exhibiting implant/insertion tendopathy; assay: Clinical trial: implant/insertion tendopathy, local injection of tropisetron (Example 3); settings: 2 mg injected once in the area of greatest pain
Procedure: The condition treated results in the case of the first patient from epicondylitis radialis, in the case of the second patient from insertion tendopathy in the area of insertion of the deltoid muscle and, in the case of the third patient from an enthesiopathy of the Malleolus lateralis. In all three cases, tropisetron is injected once at a dosage of 2 mg in the area of greatest pain, directly into the tissues. In all three cases severity of pain decreases within a period of 60 min. and virtually complete remittal is achieved within 24 hrs., indicating remission from disease remission.

[5] = test system: patients with epicondylitis or periarthropathia humeroscapularis; assay: Enthesiopathy (insertion tendopathy) with infiltration, pain on VAS (Example 4a); settings: 7 days after local injection
Description: (§1) Pain is subsequently determined on a visual analogue scale (VAS) that goes from 0 mm (no pain) to 100 mm (strongest pain). • 4a) Enthesiopathy (Insertion Tendopathy) (with infiltration): • (i) patient; Diagnosis: epicondylitis. Rest pain before local injection of tropisetron 30 mm, 7 days later 0 mm. • (ii) patient, diagnosis: periarthropathia humeroscapularis. Rest pain before local injection of tropisetron 85 mm, 7 days after local injection 45 mm. • (iii) Patient, diagnosis: epicondylitis. Rest pain before local injection of tropisetron 35 mm, 7 days thereafter 0 mm. • 4b) Rheumatoid arthritis (intraarticular injection): • (i) patient.

[6] = test system: patient with Morbus Still; assay: Left knee joint irritation (Morbus Still), intraarticular injection (Example 4c); settings: for knee joint circumference: before 44 cm; for pain under strain (VAS): before 70; for pain at rest in the VAS (0-100): before 98
Description: as §1
Patient, Morbus Still diagnosed 1.5 years ago. Despite basic treatment with 15 mg methotrexat per week and 20 mg prednisolone per day, the patient suffers from swelling and overheating of the left knee joint for the first time in February 1999. Pain at rest in the VAS 98 (0-100), pain under strain 70. Obvious articular effusion. Knee joint circumference 44 cm, straightening/bending 0°-10°, 115°. 24 hours after an intraarticular injection with 2 mg tropisetron pain at rest in the Visual Analog Scale (VAS) 0, pain under strain 70. […] 7 days later pain at rest in the VAS 0, pain under strain 57, straightening/bending 0°,0°,130°, knee joint circumference 40.5 cm. • 4e) Gonarthrosis: […]

[7] = test system: patient with activated gonarthritis with effusion; assay: Gonarthrosis, intra-articular injection (Example 4e); settings: intra-articular 2 mg; for pain at rest on the visual analog scale for pain (0-100): before 43
Description: as §1
Patient has activated gonarthritis with effusion for 2 months. Only short-term pain reduction by means of non-steroidal antiphlogistics could be achieved. Following an intra-articular injection with 2 mg tropisetron, pain at rest after 24 hours on the visual analog scale for pain (0-100) sinks from 43 to 25, after 2 days to 13, after 7 days to 10 and in a follow-up check after 17 days to 4. The analog values for pain under strain are 75, 45, 10 and 10, respectively. The effusion is gone after 7 days, as is the overheating of the knee joint.

[8] = test system: patient with cervical syndrome; assay: Spinal syndrome: cervical syndrome, i.v. administration (Examples 5 and 6(i)); settings: 2 mg i.v., before injection 68 mm
Description: as §1
Patient, diagnosis: cervical syndrome. Before injection of 2 mg tropisetron 68 mm rest pain, 24 hours later 35 mm, at day 7 18 mm.
Patient, diagnosis: cervical syndrome. Before i.v. injection of 2 mg tropisetron 68 mm rest pain, 24 hours later 35 mm, at day 7 18 mm. • (ii) Lumbalgia: […]

[9] = 24 hours after intraarticular injection of 2 mg
[10] = 7 days later, intraarticular 2 mg

## CN1[C@@H]2CC[C@H]1C[C@@H](OC(=O)c1c[nH]c3ccccc13)C2 [tropisetron, Indol-3-yl-carboxylic acid-endo-8-methyl-8-aza-bicyclo[3,2,1]-oct-3-yl-ester]
[1]; both patients examined over one week following treatment
  symptoms: free of symptoms
[1]; two patients (shoulder joint, knee joint), within a few hours
  remission from pain: almost complete remission from pain
[2]; after 45 min.
  pain: marked reduction of pain
[2]; after 5 hours
  effusion from the knee joint: major reduction of effusion
[2]; without further therapy, observation period of 5 days
  symptoms: free of symptoms
[3]; 2 mg i.v. daily
  movement of the knee joint: clearly improved
[3]; 2 mg i.v. daily, without any other medication
  time until exudation from the knee joint is completely inhibited: ≤ 8 days
[3]; 2 mg i.v., 15 injections over 17 days, following continuation of injections
  symptoms: virtually free of symptoms
[3]; 2 mg i.v., 15 injections over 17 days, observation following completion of therapy
  persistence of improvement in condition after completion of therapy: continues over a further 7 days observation
[3]; 2 mg i.v., 24 hours after the first i.v. injection
  pain: significant improvement of pain
[4]
  further improvements after injection: increase of strength and of flexibility of the affected body part
[4]; all three patients
  period within which severity of pain decreases: ≤ 60 min
  time within which virtually complete remittal is achieved: ≤ 24 h
[5]; patient (i), epicondylitis, before injection 30 mm
  rest pain (VAS): 0 mm
[5]; patient (ii), periarthropathia humeroscapularis, before injection 85 mm
  rest pain (VAS): 45 mm
[5]; patient (iii), epicondylitis, before injection 35 mm
  rest pain (VAS): 0 mm
[6]; [9]
  joint swelling and effusion: significant reduction of joint swelling and effusion
  knee joint circumference: 41 cm
  pain under strain (VAS): 70
[6]; 24 hours after intraarticular injection of 2 mg, on methotrexat and prednisolone
  pain at rest in the VAS (0-100): 0
[6]; [10]
  knee joint circumference: 40.5 cm
  pain under strain (VAS): 57
  pain at rest in the VAS (0-100): 0
[7]; after 24 hours
  pain at rest on the visual analog scale for pain (0-100): 25
[7]; after 2 days
  pain at rest on the visual analog scale for pain (0-100): 13
[7]; after 7 days
  effusion: gone
  overheating of the knee joint: gone
  pain at rest on the visual analog scale for pain (0-100): 10
[7]; follow-up check after 17 days
  pain at rest on the visual analog scale for pain (0-100): 4
[7]; fourth of four printed values, time point unclear (7 or 17 days)
  pain under strain, visual analog scale (0-100): 10
[7]; second of four printed values, presumably after 24 hours, first value (before) 75
  pain under strain, visual analog scale (0-100): 45
[7]; third of four printed values, time point unclear (2 or 7 days)
  pain under strain, visual analog scale (0-100): 10
[8]; 24 hours later
  rest pain (VAS): 35 mm
[8]; at day 7
  rest pain (VAS): 18 mm
